How the values were obtained:
Assay in all cases: relative viability (nuclei count vs DMSO), 5 days (fraction); higher = more cells survive
Vemurafenib + Pictilisib = compound: CCCS(=O)(=O)Nc1ccc(F)c(C(=O)c2c[nH]c3ncc(-c4ccc(Cl)cc4)cc23)c1F [Vemurafenib] + CS(=O)(=O)N1CCN(Cc2cc3nc(-c4cccc5[nH]ncc45)nc(N4CCOCC4)c3s2)CC1 [Pictilisib] (partner 1 µM)
Summary of the method: (§1)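 For relative viability, nuclei counts in treated wells were divided by those in vehicle wells. Lung cancer cell lines had been pin-tool dosed in 1536-well plates the day after seeding and cultured for 5 days, then fixed and stained in one step (final 0.05% Triton X-100, 1% formaldehyde, 1 ug/ml Hoechst) and imaged at 4×. Doses were one drug alone or a fixed anchor-drug dose plus five library-drug doses (not always all listed) in √10 steps, and values are duplicate-plate medians.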

OSI-027 + Trametinib = compound: COc1cccc2cc(-c3nc([C@H]4CC[C@H](C(=O)O)CC4)n4ncnc(N)c34)[nH]c12 [OSI-027] + CC(=O)Nc1cccc(-n2c(=O)n(C3CC3)c(=O)c3c(Nc4ccc(I)cc4F)n(C)c(=O)c(C)c32)c1 [Trametinib] (partner 0.02 µM)
Summary of the method: as §1

OSI-027 + Crizotinib = compound: COc1cccc2cc(-c3nc([C@H]4CC[C@H](C(=O)O)CC4)n4ncnc(N)c34)[nH]c12 [OSI-027] + C[C@@H](Oc1cc(-c2cnn(C3CCNCC3)c2)cnc1N)c1c(Cl)ccc(F)c1Cl [Crizotinib] (partner 1 µM)
Summary of the method: as §1

Alpelisib + OSI-027 = compound: Cc1nc(NC(=O)N2CCC[C@H]2C(N)=O)sc1-c1ccnc(C(C)(C)C(F)(F)F)c1 [Alpelisib] + COc1cccc2cc(-c3nc([C@H]4CC[C@H](C(=O)O)CC4)n4ncnc(N)c34)[nH]c12 [OSI-027] (partner 0.5 µM)
Summary of the method: as §1

Row | Cell Line | relative viability (Vemurafenib + Pictilisib; first compound 0.03162 µM) | relative viability (Vemurafenib + Pictilisib; first compound 0.3162 µM) | relative viability (Vemurafenib + Pictilisib; first compound 1 µM) | relative viability (OSI-027 + Trametinib; first compound 0.01 µM) | relative viability (OSI-027 + Trametinib; first compound 0.03162 µM) | relative viability (OSI-027 + Trametinib; first compound 0.1 µM) | relative viability (OSI-027 + Trametinib; first compound 0.3162 µM) | relative viability (OSI-027 + Trametinib; first compound 1 µM) | relative viability (OSI-027 + Crizotinib; first compound 0.01 µM) | relative viability (OSI-027 + Crizotinib; first compound 0.03162 µM) | relative viability (OSI-027 + Crizotinib; first compound 0.1 µM) | relative viability (OSI-027 + Crizotinib; first compound 0.3162 µM) | relative viability (OSI-027 + Crizotinib; first compound 1 µM) | relative viability (Alpelisib + OSI-027; first compound 0.04 µM) | relative viability (Alpelisib + OSI-027; first compound 0.1265 µM) | relative viability (Alpelisib + OSI-027; first compound 0.4 µM) | relative viability (Alpelisib + OSI-027; first compound 1.265 µM) | relative viability (Alpelisib + OSI-027; first compound 4 µM) | relative viability (Vemurafenib + Pictilisib; first compound 0.1 µM)
1 | NCI-H1650 | 0.487 | 0.581 | 0.601 | 0.485 | 0.504 | 0.614 | 0.6 | 0.408 | 1.13 | 0.999 | 0.886 | 1.2 | 0.531 | 0.637 | 0.561 | 0.529 | 0.433 | 0.374 | 
2 | NCI-H1651 | 0.523 | 0.665 | 0.527 | 0.829 | 0.736 | 0.838 | 0.805 | 0.607 | 0.878 | 0.801 | 0.841 | 0.816 | 0.635 | 0.638 | 0.688 | 0.646 | 0.569 | 0.473 | 0.6
3 | NCI-H1666 | 0.387 | 0.482 | 0.331 | 0.865 | 0.848 | 0.843 | 0.765 | 0.692 | 1 | 1.09 | 0.754 | 0.76 | 0.524 | 0.837 | 0.826 | 0.807 | 0.609 | 0.536 | 
4 | NCI-H1734 | 0.452 | 0.432 | 0.367 | 0.667 | 0.687 | 0.659 | 0.586 | 0.42 | 0.618 | 0.509 | 0.731 | 0.599 | 0.394 | 0.513 |  | 0.455 | 0.278 | 0.201 | 0.545
5 | NCI-H1755 | 0.342 | 0.314 | 0.381 | 0.738 | 0.759 | 0.761 | 0.654 | 0.501 | 0.915 | 0.771 | 0.872 | 0.748 | 0.421 | 0.684 | 0.575 | 0.719 | 0.55 | 0.509 | 0.347
6 | NCI-H1792 | 0.272 | 0.259 | 0.234 | 0.528 | 0.303 | 0.412 | 0.408 | 0.219 | 1.06 | 0.617 | 1.01 | 0.902 | 0.199 | 0.653 | 0.866 | 0.677 | 0.44 | 0.292 | 0.249
7 | NCI-H1915 | 0.751 | 0.908 | 0.85 | 0.284 | 0.299 | 0.262 | 0.233 | 0.314 | 0.928 | 0.829 | 0.931 | 0.896 | 0.584 | 0.628 | 0.597 | 0.61 | 0.558 | 0.401 | 0.903

From the supplement of paper PMC10307832
